Consider one substance from patent US12702675B2, “Tetrahydrococannabinolic acid cocrystals” (Manoira Corporation, priority 2020, dated 2026).

Series [1] in a line: Solid-state stability study, ambient conditions in clear glass vial for 6 months. It is filed as physicochemical.
A short description of series [2]: Solid-state stability study, accelerated conditions (40° C. and 75% relative humidity, 14 days). It is filed as physicochemical. The following applies: 40° C./75% RH, 2 weeks, sealed container. The protocol: A study was carried out to examine the physical stability of the tetrahydrocannabinolic acid cocrystals with respect to solid form conversion or signs of decomposition over time under both ambient and accelerated conditions.

Consider “1:1 tetrahydrocannabinolic acid ethyl maltol cocrystal [1:1 THCA ETHYL MALTOL]”, for which the Appearance entry in series [1] (50 mg solid) and in series [2] (50 mg solid) was “No change” throughout. Further, the results for the XRPD analysis entry in series [1] (form change by XRPD) and in series [2] (form change by XRPD) were “No change” and “slight signs of dissociation”, respectively.
